Patent US20200306185A1, “ANTIBACTERIAL COLLOID AND METHOD FOR MANUFACTURING THE SAME” (Kaohsiung Medical University, priority 2019, published 2020)

How the values were obtained:
K. pneumoniae BAA-1705 = assay: Synergistic bacteriostatic test (checkerboard test); type: cell-based, Klebsiella pneumoniae
Procedure: (§1) The synergistic bacteriostatic test is carried out by using the silver-containing antibacterial colloid (green mediated AgNP inhibitor) manufactured in the present embodiment and a bioactivator (using Gentamicin as an example). The fractional inhibitory concentration (FIC) index is used as a reference index for synergy. Synergy is the phenomenon in which two or more substances are mixed with each other, and the overall effect is greater than the advantage of each substance alone or less than the disadvantage of each substance alone. […] In the two-fold serial dilutions, the concentration of Gentamicin used for K. pneumoniae 700623 ranging from 1.25 μg·mL^−1 to 40 μg·mL^−1, and the concentration of Gentamicin used for K. pneumoniae BAA-1705 ranged from 5 μg·mL^−1 to 160 μg·mL^−1 The green mediated AgNP inhibitor extract extracted with TSB medium is used, and the above procedure is repeated to dilute the concentration of the green mediated AgNP inhibitor extract to 10 mg·mL^−1 50 μL of green mediated AgNP inhibitor is added longitudinally to the 96-well microplate in a two-fold serial dilution using MHB, followed by two-fold serial dilutions of six times at concentrations ranging from 0.31 mg·mL^−1 to 10 mg·mL^−1 Using 0.5 Mcfarland turbidity as the quantitative standard for bacterial solution (0.5 Mcfarland=10^8 CFU/mL). […]

K. pneumoniae 700623 = assay: as above; type: cell-based, Klebsiella pneumoniae
Procedure: as §1

[1] = in combination with green mediated AgNP inhibitor

Question: For Gentamicin, which “concentration of Gentamicin when used in combination (G-MIC-com)” value (K. pneumoniae BAA-1705; [1]) is on record?
Answer: 10 µg/mL

Question: What about the “MIC of Gentamicin when used alone (MICG)” value (K. pneumoniae BAA-1705; used alone) of the same substance?
Answer: 40 µg/mL

Question: What about the “concentration of Gentamicin when used in combination (G-MIC-com)” value (K. pneumoniae 700623; [1]) of the same substance?
Answer: 5 µg/mL

Question: And the “MIC of Gentamicin when used alone (MICG)” value (K. pneumoniae 700623; used alone)?
Answer: 40 µg/mL
